# Reference: patent US20260083826A1, “NEW SYNTHETIC DRUGS FOR TREATING ALZHEIMER'S DISEASE” (OKINAWA INSTITUTE OF SCIENCE AND TECHNOLOGY SCHOOL …, priority 2022, published 2026)
# “Also recorded” adds a separate entry of the source.
# Legend:
# porcine tubulin = porcine tubulin (Sus scrofa, UniProt P02550+P02554); assay: Tubulin polymerization assay (MT assembly); assay type: biochemical
# [1] = tested on: calyx of Held presynaptic terminals; assay: Simultaneous pre- and postsynaptic whole-cell recording of EPSCs at the calyx of Held in brainstem slices; assay type: cell-based, mouse; conditions: for EPSC amplitude 30 min after infusion (normalized to baseline) / EPSC amplitude remaining 30 min after infusion (normalized to baseline): 20 μM loaded in presynaptic terminal; for EPSC amplitude at 30 min (normalized to baseline): 1 μM intra-terminal; for Effect on h-tau-induced EPSC rundown: 1 mM co-loaded with h-tau 20 μM, 30 min after infusion; for Prevention of WT h-tau-induced EPSC rundown: 20 μM co-loaded with WT h-tau 20 μM
# dynamin1 = assay: Immunofluorescence quantification of bound-form dynamin in calyceal terminals; assay type: cell-based, mouse
# Procedure: (§1) The following primary antibodies were used: anti-β3-tubulin (Synaptic System, #302304), anti-human Tau (BioLegend, #806501), anti-dynamin (Invitrogen, PA1-660). Secondary antibodies were goat IgG conjugated with Alexa Fluor 488, 568, or 647 (Thermo Fisher Scientific). Acute brainstem slices (175 μm in thickness, see below) were fixed with 4% paraformaldehyde in PBS for 30 min at 37° C. and overnight at 4° C. On the following day, slices were rinsed three times in PBS, permeabilized in PBS containing 0.5% Triton X-100 (Tx-100; Nacalai Tesque) for 30 min and blocked in PBS containing 3% bovine serum albumin (BSA; Sigma-Aldrich) and 0.05% Tx-100 for 45 min. Slices were incubated overnight at 4° C. with primary antibody diluted in PBS 0.05% Tx-100, 0.3% BSA. On the next day, slices were rinsed three times with PBS containing 0.05% Tx-100 for 10 min and incubated with corresponding secondary antibody diluted in PBS 0.05% Tx-100, 0.3% BSA for 1 h at room temperature (RT). […] For quantifying fluorescence intensity levels, the region of interest was delimited around calyceal terminals, and background fluorescence was subtracted using ImageJ software.
# (§2) The monomeric GTPases dynamin 1 and 3 play critical roles in the endocytic fission of SVs (50-52). […] To test this hypothesis, we performed immunofluorescence microscopy and image analysis to quantify MTs and dynamin. […]
# [2] = tested on: calyx of Held presynaptic terminals; assay: Membrane capacitance measurements (SV exo-endocytosis) at calyx of Held presynaptic terminals; assay type: cell-based, mouse; conditions: for Presynaptic Ca2+ current charge (QCa) / Exocytic capacitance magnitude / Endocytic rate (endocytic capacitance change): 20 μM; for Presynaptic Ca2+ current charge (QCa): 20-30 min after patch membrane rupture; for Exocytic capacitance magnitude: vs controls; for Effect on h-tau-induced endocytic slowing: 0.25 mM co-loaded with WT h-tau 20 μM
# β3-tubulin = assay: Immunofluorescence quantification of MTs in calyceal terminals; assay type: cell-based, mouse
# Procedure: as §1, §2
# MT-dynamin 1 binding = biological target: T1, MT-dynamin 1 binding (Sus scrofa, UniProt P02550+P02554); assay: MT-dynamin binding assay (microtubule spin-down, SDS-PAGE, SYPRO Orange); set-up: species or system human
# T1 construct: His
# Procedure: Microtubule binding assay was performed using Microtubule Binding Protein Spin Down Assay Kit (cat #BK029, Cytoskeleton Inc., Denver, CO, USA). Briefly, 20 μl of 5 mg/ml tubulin in general tubulin buffer (GTB; 80 mM PIPES pH7.0, 2 mM MgCl2, 0.5 mM EGTA) supplemented with 1 mM GTP were polymerized by adding 2 μl of cushion buffer (80 mM PIPES pH7.0, 1 mM MgCl2, 1 mM EGTA, 60% glycerol), and incubated at 35° C. for 20 min. Microtubules were stabilized with 20 μM Taxol. Taxol-stabilized microtubules (2.5 μM) and dynamin 1 ([…]) were incubated in GTB with or without 1 mM peptide at room temperature for 30 min. After incubation, the 50 μl of mixture was loaded on top of 100 μl cushion buffer supplemented with 20 μM Taxol, and then centrifuged at 100,000×g for 40 min at room temperature. After the ultracentrifugation, 50 μl of supernatant was taken and mixed with 10 μl of 5×sample buffer. The resultant pellet was resuspended with 50 μl of 1×sample buffer. Twenty μl of each sample was analyzed by SDS-PAGE and stained with SYPRO Orange. Protein bands were visualized using FLA-3000 (FUJIFILM Co. LTD, Tokyo, Japan).
# MTs were prepared from tubulin and stabilized by taxol. And then taxol stabilized MTs and Dyn1 were incubated with/without PHDP5. Using ultracentrifugation to separate supernatant (unbinding protein) and pellet (bound protein) fractions. Samples were analyzed by SDS-PAGE gel and visualized by SYPRO Orange staining. […] This may cause by competitive binding of Dyn1/PHDP5 to MTs (FIG. 6A).
# We changed the incubation order that MTs were mixed with PHDP5 and then incubated with Dyn1.
# For optimizing the condition of PHDP5 to block MT-dynamin binding, we have tried different PHDP5 concentration and incubation period with Dyn1. […] Without PHDP5, there is no difference between each time point (FIG. 7B). […] We prepared several FITC-labeled PHDP5 peptide candidates to improve the brain barrier permeability of PHDP5 (Table 3). The N-terminus of the construct was protected with β-alanine (BA) and labeled with FITC. Under the same condition, several FITC-labeled PHDP5 candidates and its' scrambled control were also tested.
# [3] = 30 min after patch membrane rupture
# [4] = 30 min after patch membrane rupture, listed as h-tau
# T1 sequence (P02550 whole entry): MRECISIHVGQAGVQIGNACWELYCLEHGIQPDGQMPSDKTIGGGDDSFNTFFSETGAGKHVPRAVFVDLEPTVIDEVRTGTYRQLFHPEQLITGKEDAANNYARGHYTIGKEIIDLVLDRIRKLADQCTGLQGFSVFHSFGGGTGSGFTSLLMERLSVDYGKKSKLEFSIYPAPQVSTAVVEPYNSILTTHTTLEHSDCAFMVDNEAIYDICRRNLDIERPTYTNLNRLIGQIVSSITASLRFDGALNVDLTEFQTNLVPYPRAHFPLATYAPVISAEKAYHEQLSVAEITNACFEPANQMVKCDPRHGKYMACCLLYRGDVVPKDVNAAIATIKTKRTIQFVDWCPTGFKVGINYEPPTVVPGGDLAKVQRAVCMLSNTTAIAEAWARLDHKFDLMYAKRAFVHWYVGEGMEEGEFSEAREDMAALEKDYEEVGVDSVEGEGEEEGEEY
# T1 sequence (P02554 whole entry): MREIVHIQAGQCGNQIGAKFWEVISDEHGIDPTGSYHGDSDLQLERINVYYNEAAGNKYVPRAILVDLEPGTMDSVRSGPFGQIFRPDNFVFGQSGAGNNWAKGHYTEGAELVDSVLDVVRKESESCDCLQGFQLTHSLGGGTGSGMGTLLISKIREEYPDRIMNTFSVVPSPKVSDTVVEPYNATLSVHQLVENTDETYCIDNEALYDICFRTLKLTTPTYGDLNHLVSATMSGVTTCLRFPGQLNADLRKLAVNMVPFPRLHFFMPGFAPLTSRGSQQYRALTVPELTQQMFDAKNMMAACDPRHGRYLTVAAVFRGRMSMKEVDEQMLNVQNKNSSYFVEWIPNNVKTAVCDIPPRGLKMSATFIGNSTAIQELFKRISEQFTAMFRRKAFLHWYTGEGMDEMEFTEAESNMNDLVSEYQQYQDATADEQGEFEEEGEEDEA
# Sequence of porcine tubulin (P02550 whole entry, the tested form may be a part): as the sequence (P02550 whole entry) above
# Sequence of porcine tubulin (P02554 whole entry, the tested form may be a part): as the sequence (P02554 whole entry) above
molecule,measurement,setting,value
WT h-tau: wild-type recombinant human tau of ON4R isoform expressed in E. coli,MT assembly in in vitro tubulin polymerization assay,porcine tubulin; 10 μM,MT assembly
same,Miniature EPSC amplitude and frequency,[1]; 20 μM intra-terminal loading,neither amplitude nor frequency was affected
same,EPSC amplitude 30 min after infusion (normalized to baseline),[1]; EPSCs evoked at 0.1 Hz,85±12%
same,EPSC amplitude 30 min after infusion (normalized to baseline),"[1]; EPSCs evoked at 0.1 Hz, listed as h-tau",85%+12
same,EPSC amplitude remaining 30 min after infusion (normalized to baseline),[1]; EPSCs evoked at 1 Hz,65±5%
same,EPSC amplitude remaining 30 min after infusion (normalized to baseline),"[1]; EPSCs evoked at 1 Hz, listed as h-tau",23±9%
same,Increase in dynamin signal vs terminals without loading,dynamin1; 20 μM whole-cell infusion,2.6 fold
same,dynamin1 immunofluorescence intensity vs control terminals,dynamin1; WT h-tau loading,significantly increased
same,Presynaptic Ca2+ current charge (QCa),[2],not different from controls; also recorded: remained unchanged
same,Presynaptic Ca2+ current charge (QCa),[2]; listed as h-tau,without a change
same,Exocytic capacitance magnitude,[2]; 20 min after patch membrane rupture,not different from controls; also recorded: remained similar to controls
same,Endocytic rate (endocytic capacitance change),"[2]; 20 min after patch membrane rupture, vs non-loading controls",significant slowing; also recorded: significantly prolonged
same,Endocytic rate (endocytic capacitance change),[2]; [3],further prolonged
same,Exocytic capacitance magnitude,[2]; [3],significantly less than controls
same,Exocytic capacitance magnitude,[2]; [4],significant reduction
same,Endocytic rate (endocytic capacitance change),[2]; [4],further slowed
same,Increase in MT (β3-tubulin) signals vs terminals without loading,β3-tubulin; 20 μM whole-cell infusion,2.1 fold
same,β3-tubulin immunofluorescence intensity vs control terminals,β3-tubulin; WT h-tau loading,significantly increased
"CC(=O)O[C@H]1C(=O)[C@@]2(C)[C@H]([C@H](OC(=O)c3ccccc3)[C@]3(O)C[C@H](OC(=O)[C@H](O)[C@@H](NC(=O)c4ccccc4)c4ccccc4)C(C)=C1C3(C)C)[C@]1(OC(C)=O)CO[C@@H]1C[C@@H]2O [taxol, reference compound]",MT assembly in in vitro tubulin polymerization assay,porcine tubulin; 1 μM,assembles tubulins into MTs; also recorded: MT assembly
same,EPSC amplitude at 30 min (normalized to baseline),[1]; EPSCs evoked at 0.1 Hz,104±3.0%
same,EPSC amplitude at 30 min (normalized to baseline),"[1]; EPSCs evoked at 0.1 Hz, listed as Taxol",105±3.0%
same,EPSC amplitude at 30 min (normalized to baseline),[1]; EPSCs evoked at 1 Hz,41±12%
same,EPSC amplitude at 30 min (normalized to baseline),"[1]; EPSCs evoked at 1 Hz, listed as Taxol",41.4±12%
"O=C1NC(=S)N(c2cccc(Br)c2)C(=O)/C1=C/c1ccco1 [SMFH2, reference compound]",Effect on SV endocytosis,[2]; calyceal terminals in slices from post-hearing mice (P13-14),"slightly prolonged SV endocytosis, but this effect was statistically insignificant"
PHDP5: synthetic dodecapeptide corresponding to amino acids 560-571 of dynamin 1 (PH domain); inhibits MT-dynamin interaction (EKKYMLSVDNLK),"Effect on EPSC amplitude, loaded alone",[1]; 1 mM alone,did not affect
same,"Effect on EPSC amplitude, loaded alone","[1]; 1 mM alone, listed as DPHP5",no effect
same,Effect on h-tau-induced EPSC rundown,[1],significantly attenuated
same,Effect on h-tau-induced EPSC rundown,[1]; listed as DPHP5,attenuated
same,"Effect on exo-endocytic capacitance changes, loaded alone",[2]; 0.25 mM alone,no effect
same,Effect on h-tau-induced endocytic slowing,[2],significantly attenuated
same,Effect on h-tau-induced endocytic slowing,[2]; listed as DPHP5,significant difference
same,Inhibition of MT-dynamin 1 interaction,MT-dynamin 1 binding; 1 mM peptide,significantly inhibited; also recorded: strongly inhibits
same,% of Dyn1 in pellet fraction,"MT-dynamin 1 binding; MTs incubated with 1 mM, shorter incubation period with Dyn1 (10 min)",lower
same,% of Dyn1 in pellet fraction,MT-dynamin 1 binding; MTs incubated with 3 mM compared with 1 mM,lower
same,% of Dyn1 in pellet fraction,"MT-dynamin 1 binding; MTs incubated with 3 mM, incubation with Dyn1 for 5 min",lower
same,% of Dyn1 in pellet fraction,"MT-dynamin 1 binding; MTs mixed with PHDP5 first, then incubated with Dyn1",decreased
same,Dynamin 1 in precipitates (ppt fraction) relative to total amount,"MT-dynamin 1 binding; peptide added to MT and dynamin 1, 22.6±2.4% with MT without peptide",6.3±2.4%
same,% of Dyn1 in pellet fraction,MT-dynamin 1 binding; taxol stabilized MTs and Dyn1 incubated together with/without PHDP5,no difference
"COC(=O)Nc1nc2ccc(C(=O)c3cccs3)cc2[nH]1 [nocodazole, reference compound]",Concentration at which maximal inhibition of h-tau-dependent MT assembly is reached,porcine tubulin,20 µM
same,Inhibition of h-tau-dependent MT assembly,"porcine tubulin; nocodazole 1, 10, 20, 50 μM, ON4R h-tau (20 μM)",inhibited h-tau-dependent MT assembly in a concentration-dependent manner; also recorded: Concentration-dependent inhibitory effects
same,"Effect on EPSC amplitude, loaded alone",[1]; 20 μM alone,no effect
same,Prevention of WT h-tau-induced EPSC rundown,[1],fully prevented
same,Prevention of WT h-tau-induced EPSC rundown,[1]; listed as Nocodazole,prevented EPSC rundown
same,"Effect on exo-endocytosis, loaded alone",[2]; 20 μM alone,no effect
same,Prevention of h-tau-induced block of SV endocytosis,"[2]; 20 μM co-loaded with h-tau 20 μM, 25 min after loading",fully prevented
del-MTBD: human tau deletion mutant lacking the MT-binding domain (amino acid 244 to 367) (protein) MAEPRQEFEVMEDHAGTYGLGDRKDQGGYTMHQDQEGDTDAGLKAEEAGIGDTPSLEDEAAGHVTQARMVSKSKDGTGSDDKKAKGADGKTKIATPRGAAPPGQKGQANATRIPAKTPPAPKTPPSSGEPPKSGDRSGYSSPGSPGTPGSRSRTPSLPTPPTREPKKVAVVRTPPKSPSSAKSRLNKKIETHKLTFRENAKAKTDHGAEIVYKSPVVSGDTSPRHLSNVSSTGSIDMVDSPQLATLADEVSASLAKQGL,MT assembly in in vitro tubulin polymerization assay,"porcine tubulin; 10 μM, listed as Del-MTBD",lacking tubulin polymerization capability
same,"Effect on EPSC amplitude, loaded alone",[1]; 20 μM alone,no effect
